This test has as its system Candida albicans. The test is described as follows: In vitro antifungal activity test (MIC), Candida albicans. Format: cell-based. As to conditions: Candida albicans; concentration at which growth is inhibited by 80% vs negative control; 35° C., 24 hours, RPMI 1640, alama blue. Here is the method: The antifungal activities of the compounds of the present invention were evaluated using Candida albicans as yeast fungus, and Aspergillus fumigatus as a filamentous fungus. The above fungi used were all purchased from American Type Culture Collection (ATCC). The strains used in the experiment were inoculated into a Sabouraud dextrose agar medium, and then cultured at 35° C. for a sufficient period of time, e.g., 24 hours for Candida albicans, and about 7 days for Aspergillus fumigatus. As for Candida albicans, about 5 to 7 single colonies were taken from the cultured medium, sufficiently suspended in 1 ml of 0.85% sterile saline solution, and adjusted to have an optical density of 0.095 to 0.107 at 530 nm. A preparation of a strain diluent was diluted in Roswell park memorial institute (RPMI) 1640 medium at a 1:10 ratio, and the resultant was diluted again at a 1:100 ratio to obtain an inoculation preparation for Candida albicans with a concentration of 1.0×10^3 to 5.0×10^3 CFU/mL. As for Aspergillus fumigatus, the cultured Sabouraud dextrose agar was added with 1 mL of 0.2% Tween 20 diluted with 0.85% sterile saline solution, and then the plate was shaken to detach conidium from the plate. The solution collected from the plate surface was transferred into a sterile tube, and placed at room temperature for 5 minutes to deposit heavy substances. The resulting supernatant was transferred into the sterile tube, sufficiently suspended for about 15 seconds, and prepared a strain diluent with a concentration of 0.4×10^6 to 5.0×10^6 CFU/mL using a hemocytometer. The thus prepared strain diluent was diluted in RPMI 1640 medium at a 1:100 ratio to obtain an inoculation preparation for Aspergillus fumigatus. Candida albicans was cultured at 35° C. for 24 hours and Aspergillus fumigatus was cultured at 35° C. for 48 hours, and the concentrations, at which growth is inhibited by 80% or 50% compared to a negative control group, were determined using alama blue color developing reagent. All experiments were repeated twice for each concentration, and the results of antifungal activities (MIC80 MIC50 μg/mL) are shown in Tables 1 to 2.

For 35 molecules, MIC80 results are on record in patent publication US9617216B2, “Antifungal oxodihydropyridinecarbohydrazide derivative” (Daewoong Pharmaceutical Co., Ltd., priority 2013, dated 2017).

The structures appear in SMILES notation. Values after ≈ are worked out from the molar mass of the structure shown.

With `Cn1cc(C(=O)NNc2ccc(F)cc2)ccc1=O` [Example 3, N′-(4-fluorophenyl)-1-methyl-6-oxo-1,6-dihydropyridine-3-carbohydrazide], the MIC80 was 0.1 µg/mL (≈ 0.383 µM).
The figure for `Cn1cc(C(=O)NNc2cccc(Cl)c2)ccc1=O` [Example 4, N′-(3-chlorophenyl)-1-methyl-6-oxo-1,6-dihydropyridine-3-carbohydrazide] is 0.11 µg/mL (≈ 0.396 µM); for `Cn1cc(C(=O)NNc2ccc(Cl)cc2)ccc1=O` [Example 5, N′-(4-chlorophenyl)-1-methyl-6-oxo-1,6-dihydropyridine-3-carbohydrazide] it is 0.05 µg/mL (≈ 0.18 µM).
Under `Cn1cc(C(=O)NNc2cccc(C#N)c2)ccc1=O` [Example 6, N′-(3-cyanophenyl)-1-methyl-6-oxo-1,6-dihydropyridine-3-carbohydrazide] stands 0.1 µg/mL (≈ 0.373 µM); under `Cn1cc(C(=O)NNc2ccc(C#N)cc2)ccc1=O` [Example 7, N′-(4-cyanophenyl)-1-methyl-6-oxo-1,6-dihydropyridine-3-carbohydrazide], 0.84 µg/mL (≈ 3.13 µM).
For the molecule `Cn1cc(C(=O)NNc2cccc(C(F)(F)F)c2)ccc1=O` [Example 8, 1-methyl-6-oxo-N′-(3-(trifluoromethyl)phenyl)-1,6-dihydropyridine-3-carbohydrazide], the MIC80 is 0.24 µg/mL (≈ 0.771 µM).
In turn, `Cn1cc(C(=O)NNc2ccc(C(F)(F)F)cc2)ccc1=O` [Example 9, 1-methyl-6-oxo-N′-(4-(trifluoromethyl)phenyl)-1,6-dihydropyridine-3-carbohydrazide] returned an MIC80 of 1.95 µg/mL (≈ 6.26 µM).
As to `Cn1cc(C(=O)NNc2ccc(F)c(F)c2)ccc1=O` [Example 12, N′-(3,4-difluorophenyl)-1-methyl-6-oxo-1,6-dihydropyridine-3-carbohydrazide], the MIC80 came to 0.22 µg/mL (≈ 0.788 µM).
The figure for `Cn1cc(C(=O)NNc2ccc(Cl)c(Cl)c2)ccc1=O` [Example 14, N′-(3,4-dichlorophenyl)-1-methyl-6-oxo-1,6-dihydropyridine-3-carbohydrazide] is 0.06 µg/mL (≈ 0.192 µM); for `Cn1cc(C(=O)NNc2ccc(F)c(Cl)c2)ccc1=O` [Example 17, N′-(3-chloro-4-fluorophenyl)-1-methyl-6-oxo-1,6-dihydropyridine-3-carbohydrazide] it is 0.12 µg/mL (≈ 0.406 µM); for `Cn1cc(C(=O)NNc2ccc(F)nc2F)ccc1=O` [Example 19, N′-(2,6-difluoropyridine-3-yl)-1-methyl-6-oxo-1,6-dihydropyridine-3-carbohydrazide] it is 0.88 µg/mL (≈ 3.14 µM).
The figure for `Cc1nc(F)ccc1NNC(=O)c1ccc(=O)n(C)c1` [Example 20, N′-(6-fluoro-2-methylpyridine-3-yl)-1-methyl-6-oxo-1,6-dihydropyridine-3-carbohydrazide] is 0.22 µg/mL (≈ 0.796 µM); for `Cn1cc(C(=O)NNc2cccc(F)c2)c(Cl)cc1=O` [Example 22, 4-chloro-N′-(3-fluorophenyl)-1-methyl-6-oxo-1,6-dihydropyridine-3-carbohydrazide] it is 0.23 µg/mL (≈ 0.778 µM).
Take `Cn1cc(C(=O)NNc2ccc(F)cc2)c(Cl)cc1=O` [Example 23, 4-chloro-N′-(4-fluorophenyl)-1-methyl-6-oxo-1,6-dihydropyridine-3-carbohydrazide]: the MIC80 is 0.46 µg/mL (≈ 1.56 µM). This MIC80 lies about 2-fold higher than the previous one.
The molecule `Cn1cc(C(=O)NNc2ccc(F)cc2)cc(Cl)c1=O` [Example 25, 5-chloro-N′-(4-fluorophenyl)-1-methyl-6-oxo-1,6-dihydropyridine-3-carbohydrazide] came in with an MIC80 of 0.23 µg/mL (≈ 0.778 µM).
In the case of `Cn1cc(C(=O)NNc2ccc(Cl)cc2)cc(Cl)c1=O` [Example 27, 5-chloro-N′-(4-chlorophenyl)-1-methyl-6-oxo-1,6-dihydropyridine-3-carbohydrazide], the MIC80 came to 0.49 µg/mL (≈ 1.57 µM).
The molecule `Cn1cc(C(=O)NNc2cccc(C#N)c2)cc(Cl)c1=O` [Example 28, 5-chloro-N′-(3-cyanophenyl)-1-methyl-6-oxo-1,6-dihydropyridine-3-carbohydrazide] returned an MIC80 of 0.12 µg/mL (≈ 0.396 µM).
The figure for `Cn1cc(C(=O)NNc2ccc(C#N)cc2)cc(Cl)c1=O` [Example 29, 5-chloro-N′-(4-cyanophenyl)-1-methyl-6-oxo-1,6-dihydropyridine-3-carbohydrazide] is 0.47 µg/mL (≈ 1.55 µM).
For the molecule `Cn1cc(C(=O)NNc2ccc(F)cc2F)cc(Cl)c1=O` [Example 30, 5-chloro-N′-(2,4-difluorophenyl)-1-methyl-6-oxo-1,6-dihydropyridine-3-carbohydrazide], the MIC80 stood at 0.31 µg/mL (≈ 0.988 µM).
The figure for `Cn1cc(C(=O)NNc2ccc(F)c(F)c2)cc(Cl)c1=O` [Example 31, 5-chloro-N′-(3,4-difluorophenyl)-1-methyl-6-oxo-1,6-dihydropyridine-3-carbohydrazide] is 0.06 µg/mL (≈ 0.191 µM).
Take `Cn1cc(C(=O)NNc2cc(F)cc(F)c2)cc(Cl)c1=O` [Example 32, 5-chloro-N′-(3,5-difluorophenyl)-1-methyl-6-oxo-1,6-dihydropyridine-3-carbohydrazide]: the MIC80 is 0.03 µg/mL (≈ 0.0956 µM).
Under `Cn1cc(C(=O)NNc2cccc(F)c2)c(Nc2ccc(C(F)(F)F)cc2)cc1=O` [Example 35, N′-(3-fluorophenyl)-1-methyl-6-oxo-4-((4-(trifluoromethyl)phenyl)amino)-1,6-dihydropyridine-3-carbohydrazide] stands 0.16 µg/mL (≈ 0.381 µM); under `Cn1cc(C(=O)NNc2ccc(F)cc2)c(Nc2ccc(C(F)(F)F)cc2)cc1=O` [Example 36, N′-(4-fluorophenyl)-1-methyl-6-oxo-4-((4-(trifluoromethyl)phenyl)amino)-1,6-dihydropyridine-3-carbohydrazide], 1.31 µg/mL (≈ 3.12 µM).
The figure for `Cn1cc(C(=O)NNc2cccc(F)c2)cc(-c2ccccn2)c1=O` [Example 41, N′-(3-fluorophenyl)-1-methyl-6-oxo-5-(pyridine-2-yl)-1,6-dihydropyridine-3-carbohydrazide] is 0.07 µg/mL (≈ 0.207 µM); for `O=C(NNc1cccc(F)c1)c1ccc(=O)n(-c2ccccc2F)c1` [Example 42, 1-(2-fluorophenyl)-N′-(3-fluorophenyl)-6-oxo-1,6-dihydropyridine-3-carbohydrazide] it is 0.07 µg/mL (≈ 0.205 µM).
`O=C(NNc1cccc(F)c1)c1ccc(=O)n(-c2cccc(F)c2)c1` [Example 43, N′,1-Bis(3-fluorophenyl)-6-oxo-1,6-dihydropyridine-3-carbohydrazide] returned an MIC80 of 0.13 µg/mL (≈ 0.381 µM).
The molecule `O=C(NNc1cccc(F)c1)c1ccc(=O)n(-c2ccc(F)cc2)c1` [Example 44, N′-(3-fluorophenyl)-1-(4-fluorophenyl)-6-oxo-1,6-dihydropyridine-3-carbohydrazide] showed an MIC80 of 0.13 µg/mL (≈ 0.381 µM).
Under `O=C(NNc1ccc(F)cc1)c1ccc(=O)n(-c2ccc(C(F)(F)F)cc2)c1` [Example 45, N′-(4-fluorophenyl)-6-oxo-1-(4-(trifluoromethyl)phenyl)-1,6-dihydropyridine-3-carbohydrazide] stands 0.61 µg/mL (≈ 1.56 µM).
Turning to `O=C(NNc1ccc(F)cc1)c1ccc(=O)n(-c2cccc(C(F)(F)F)c2)c1` [Example 46, N′-(4-fluorophenyl)-6-oxo-1-(3-(trifluoromethyl)phenyl)-1,6-dihydropyridine-3-carbohydrazide], the MIC80 was determined as 0.31 µg/mL (≈ 0.792 µM).
`O=C(NNc1ccc(F)cc1)c1ccc(=O)n(-c2cccc(Cl)c2)c1` [Example 47, 1-(3-chlorophenyl)-N′-(4-fluorophenyl)-6-oxo-1,6-dihydropyridine-3-carbohydrazide] gave an MIC80 of 0.56 µg/mL (≈ 1.57 µM).
Under `O=C(NNc1cccc(F)c1)c1ccc(=O)n(Cc2ccc(C(F)(F)F)nc2)c1` [Example 50, N′-(3-fluorophenyl)-6-oxo-1-((6-(trifluoromethyl)pyridine-3-yl)methyl)-1,6-dihydropyridine-3-carbohydrazide] stands 0.08 µg/mL (≈ 0.197 µM); under `O=C(NNc1ccc(F)cc1)c1ccc(=O)n(Cc2ccc(C(F)(F)F)nc2)c1` [Example 51, N′-(4-fluorophenyl)-6-oxo-1-((6-(trifluoromethyl)pyridine-3-yl)methyl)-1,6-dihydropyridine-3-carbohydrazide], 0.16 µg/mL (≈ 0.394 µM); under `O=C(NNc1ccc(F)c(F)c1)c1ccc(=O)n(Cc2ccc(C(F)(F)F)nc2)c1` [Example 52, N′-(3,4-difluorophenyl)-6-oxo-1-((6-(trifluoromethyl)pyridine-3-yl)methyl)-1,6-dihydropyridine-3-carbohydrazide], 0.08 µg/mL (≈ 0.189 µM).
In the case of `O=C(NNc1cccc(F)c1)c1ccc(=O)n(CCN2CCN(c3ccc(C(F)(F)F)cc3)CC2)c1` [Example 55, N′-(3-fluorophenyl)-6-oxo-1-(2-(4-(4-(trifluoromethyl)phenyl)piperazin-1-yl)ethyl)-1,6-dihydropyridine-3-carbohydrazide], the MIC80 is 0.2 µg/mL (≈ 0.397 µM).
`O=C(NNc1ccc(F)cc1)c1ccc(=O)n(CCN2CCN(c3ccc(C(F)(F)F)cc3)CC2)c1` [Example 56, N′-(4-fluorophenyl)-6-oxo-1-(2-(4-(4-(trifluoromethyl)phenyl)piperazin-1-yl)ethyl)-1,6-dihydropyridine-3-carbohydrazide]: the MIC80 was found to be 0.79 µg/mL (≈ 1.57 µM).

A word on the MIC80: it is an inhibitory concentration at the 80% level, which refers to growth in some studies and to a panel of isolates in others.
